Measurements reported in the supplement of paper PMC10307832.

What was measured:
Assay in all cases: relative viability (nuclei count vs DMSO), 5 days (fraction); higher = more cells survive
NCI-H522 = system: NCI-H522
Outline: (§1)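 Lung cancer cell lines were seeded in 1536-well plates and dosed by pin tool the next day, with either a single drug or a fixed anchor-drug dose combined with five library-drug doses (not always all listed) spaced in √10 steps. Five days later, one step fixed the cells and stained their nuclei (final 0.05% Triton X-100, 1% formaldehyde, 1 ug/ml Hoechst), and nuclei were counted on 4× images. Relative viability is the nuclei count in treated wells divided by the count in vehicle wells, and each value is the median of duplicate plates.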

EKVX = system: EKVX
Outline: as §1

NCI-H2342 = system: NCI-H2342
Outline: as §1

H3255 = system: H3255
Outline: as §1

NCI-H2347 = system: NCI-H2347
Outline: as §1

NCI-H1944 = system: NCI-H1944
Outline: as §1

LC-2-ad = system: LC-2-ad
Outline: as §1

COR-L 105 = system: COR-L 105
Outline: as §1

PC-3 [JPC-3] = system: PC-3 [JPC-3]
Outline: as §1

LXF-289 = system: LXF-289
Outline: as §1

NCI-H1395 = system: NCI-H1395
Outline: as §1

NCI-H1915 = system: NCI-H1915
Outline: as §1

SK-MES-1 = system: SK-MES-1
Outline: as §1

NCI-H2228 = system: NCI-H2228
Outline: as §1

LK-2 = system: LK-2
Outline: as §1

NCI-H2085 = system: NCI-H2085
Outline: as §1

EMC-BAC-2 = system: EMC-BAC-2
Outline: as §1

NCI-H1651 = system: NCI-H1651
Outline: as §1

CAL-12T = system: CAL-12T
Outline: as §1

NCI-H1793 = system: NCI-H1793
Outline: as §1

NCI-H2087 = system: NCI-H2087
Outline: as §1

SK-LU-1 = system: SK-LU-1
Outline: as §1

NCI-H1437 = system: NCI-H1437
Outline: as §1

NCI-H661 = system: NCI-H661
Outline: as §1

NCI-H1755 = system: NCI-H1755
Outline: as §1

## CCCCCCCCCCCC1=C(O)C(=O)C=C(O)C1=O [Embelin] + O=C(c1cc(Cc2n[nH]c(=O)c3ccccc23)ccc1F)N1CCN(C(=O)C2CC2)CC1 [Olaparib] (partner 8 µM)
NCI-H522; first compound 0.08 µM
  relative viability: 0.674
NCI-H522; first compound 0.8 µM
  relative viability: 0.633
NCI-H522; first compound 2.53 µM
  relative viability: 0.689
NCI-H522; first compound 8 µM
  relative viability: 0.945
EKVX; first compound 0.08 µM
  relative viability: 0.816
EKVX; first compound 0.8 µM
  relative viability: 0.856
EKVX; first compound 2.53 µM
  relative viability: 0.984
EKVX; first compound 8 µM
  relative viability: 0.897
NCI-H2342; first compound 0.08 µM
  relative viability: 0.482
NCI-H2342; first compound 0.8 µM
  relative viability: 0.432
NCI-H2342; first compound 2.53 µM
  relative viability: 0.459
NCI-H2342; first compound 8 µM
  relative viability: 0.427
H3255; first compound 0.08 µM
  relative viability: 0.561
H3255; first compound 0.8 µM
  relative viability: 0.614
H3255; first compound 2.53 µM
  relative viability: 0.59
H3255; first compound 8 µM
  relative viability: 0.546
NCI-H2347; first compound 0.08 µM
  relative viability: 0.596
NCI-H2347; first compound 0.8 µM
  relative viability: 0.641
NCI-H2347; first compound 2.53 µM
  relative viability: 0.521
NCI-H2347; first compound 8 µM
  relative viability: 0.68
NCI-H1944; first compound 0.08 µM
  relative viability: 0.402
NCI-H1944; first compound 0.8 µM
  relative viability: 0.474
NCI-H1944; first compound 2.53 µM
  relative viability: 0.472
NCI-H1944; first compound 8 µM
  relative viability: 0.425
LC-2-ad; first compound 0.08 µM
  relative viability: 0.675
LC-2-ad; first compound 0.8 µM
  relative viability: 0.728
LC-2-ad; first compound 2.53 µM
  relative viability: 0.678
LC-2-ad; first compound 8 µM
  relative viability: 0.727
COR-L 105; first compound 0.08 µM
  relative viability: 0.737
COR-L 105; first compound 0.8 µM
  relative viability: 0.611
COR-L 105; first compound 2.53 µM
  relative viability: 0.615
COR-L 105; first compound 8 µM
  relative viability: 0.573
PC-3 [JPC-3]; first compound 0.08 µM
  relative viability: 1.12
PC-3 [JPC-3]; first compound 0.8 µM
  relative viability: 1.17
PC-3 [JPC-3]; first compound 2.53 µM
  relative viability: 1.17
PC-3 [JPC-3]; first compound 8 µM
  relative viability: 1.07
LXF-289; first compound 0.08 µM
  relative viability: 1.06
LXF-289; first compound 0.8 µM
  relative viability: 1.17
LXF-289; first compound 2.53 µM
  relative viability: 1.26
LXF-289; first compound 8 µM
  relative viability: 1.14
NCI-H1395; first compound 0.08 µM
  relative viability: 0.539
NCI-H1395; first compound 0.8 µM
  relative viability: 0.486
NCI-H1395; first compound 2.53 µM
  relative viability: 0.461
NCI-H1395; first compound 8 µM
  relative viability: 0.443
NCI-H1915; first compound 0.08 µM
  relative viability: 0.274
NCI-H1915; first compound 0.8 µM
  relative viability: 0.254
NCI-H1915; first compound 2.53 µM
  relative viability: 0.243
NCI-H1915; first compound 8 µM
  relative viability: 0.248
SK-MES-1; first compound 0.08 µM
  relative viability: 0.757
SK-MES-1; first compound 0.8 µM
  relative viability: 0.815
SK-MES-1; first compound 2.53 µM
  relative viability: 0.802
SK-MES-1; first compound 8 µM
  relative viability: 0.214
NCI-H2228; first compound 0.08 µM
  relative viability: 0.474
NCI-H2228; first compound 0.8 µM
  relative viability: 0.886
NCI-H2228; first compound 2.53 µM
  relative viability: 0.735
NCI-H2228; first compound 8 µM
  relative viability: 0.755
LK-2; first compound 0.08 µM
  relative viability: 0.72
LK-2; first compound 0.8 µM
  relative viability: 0.515
LK-2; first compound 2.53 µM
  relative viability: 0.686
LK-2; first compound 8 µM
  relative viability: 0.69
NCI-H2085; first compound 0.08 µM
  relative viability: 0.727
NCI-H2085; first compound 0.8 µM
  relative viability: 0.73
NCI-H2085; first compound 2.53 µM
  relative viability: 0.842
NCI-H2085; first compound 8 µM
  relative viability: 0.777
EMC-BAC-2; first compound 0.08 µM
  relative viability: 0.48
EMC-BAC-2; first compound 0.8 µM
  relative viability: 0.378
EMC-BAC-2; first compound 2.53 µM
  relative viability: 0.453
EMC-BAC-2; first compound 8 µM
  relative viability: 0.492
NCI-H1651; first compound 0.08 µM
  relative viability: 0.201
NCI-H1651; first compound 0.8 µM
  relative viability: 0.166
NCI-H1651; first compound 2.53 µM
  relative viability: 0.166
NCI-H1651; first compound 8 µM
  relative viability: 0.191
CAL-12T; first compound 0.08 µM
  relative viability: 0.726
CAL-12T; first compound 0.8 µM
  relative viability: 0.727
CAL-12T; first compound 2.53 µM
  relative viability: 0.706
CAL-12T; first compound 8 µM
  relative viability: 0.677
NCI-H1793; first compound 0.08 µM
  relative viability: 0.993
NCI-H1793; first compound 0.8 µM
  relative viability: 1.03
NCI-H1793; first compound 2.53 µM
  relative viability: 1.12
NCI-H1793; first compound 8 µM
  relative viability: 1.05
NCI-H2087; first compound 0.08 µM
  relative viability: 0.649
NCI-H2087; first compound 0.8 µM
  relative viability: 0.729
NCI-H2087; first compound 2.53 µM
  relative viability: 0.688
NCI-H2087; first compound 8 µM
  relative viability: 0.607
SK-LU-1; first compound 0.08 µM
  relative viability: 0.591
SK-LU-1; first compound 0.8 µM
  relative viability: 0.56
SK-LU-1; first compound 2.53 µM
  relative viability: 0.505
SK-LU-1; first compound 8 µM
  relative viability: 0.433
NCI-H1437; first compound 0.08 µM
  relative viability: 0.611
NCI-H1437; first compound 0.8 µM
  relative viability: 0.685
NCI-H1437; first compound 2.53 µM
  relative viability: 0.639
NCI-H1437; first compound 8 µM
  relative viability: 0.495
NCI-H661; first compound 0.08 µM
  relative viability: 0.771
NCI-H661; first compound 0.8 µM
  relative viability: 0.75
NCI-H661; first compound 2.53 µM
  relative viability: 0.737
NCI-H661; first compound 8 µM
  relative viability: 0.722
NCI-H1755; first compound 0.08 µM
  relative viability: 0.986
NCI-H1755; first compound 0.8 µM
  relative viability: 0.879
NCI-H1755; first compound 2.53 µM
  relative viability: 0.901
NCI-H1755; first compound 8 µM
  relative viability: 0.849
